Source: ChEMBL document CHEMBL3217646, “Inhibitors of bacterial tubulin target bacterial membranes in vivo” (Medchemcomm, 2013)
In brackets after ≈: the same amount, converted by molar mass. Activity calls are given as the source filed them. No cut-off for these calls is given here.

Assays:
Bacillus subtilis [1] = assay: Induction of membrane associated proteins mislocalization in Bacillus subtilis subsp. subtilis str. 168 assessed as reduction in GFP-MinD protein localization by fluorescence assay; type: functional, organism-based
Bacillus subtilis [2] = assay: Increase in bacterial membrane permeability in Bacillus subtilis subsp. subtilis str. 168 at 1 times MIC pre-treated for 5 mins and measured 30 mins post dye addition by propidium iodide dye based flow cytometry; type: functional, organism-based
Bacillus subtilis [3] = assay: Induction of transmembrane potential loss in Bacillus subtilis subsp. subtilis str. 168 at 1 times MIC pre-treated for 5 mins and measured 15 mins post dye addition by DiOC2 dye based flow cytometry; type: functional, organism-based
Bacillus subtilis [4] = assay: Antimicrobial activity against Bacillus subtilis subsp. subtilis str. 168 after 18 hrs by macro-dilution method; type: functional; settings: subsp. subtilis str. 168, 18 h
Bacillus subtilis [5] = assay: Induction of transmembrane potential loss in Bacillus subtilis subsp. subtilis str. 168 assessed as lambda575/lambda530 fluorescence emission intensity ratio at 1 times MIC pre-treated for 20 mins and measured 15 mins post dye addition by DiOC2 dye based flow cytometry (reference value: 0.257 +/- 0.003 no unit); type: functional
Bacillus subtilis [6] = assay: Protonophore activity in Bacillus subtilis subsp. subtilis str. 168 assessed as induction of rapid equlibration of delta-pH at 1 times MIC; type: functional, organism-based
C2C12 [7] = assay: Induction of membrane disruption in mouse C2C12 cells assessed as maximum increase in oxygen consumption rate at 0.6 uM; type: functional, cell-based
C2C12 [8] = assay: Induction of membrane disruption in mouse C2C12 cells assessed as increase in oxygen consumption rate at 0.1 to 1.2 uM; type: functional, cell-based
Bacillus subtilis [9] = assay: Induction of transmembrane potential loss in Bacillus subtilis subsp. subtilis str. 168 assessed as lambda575/lambda530 fluorescence emission intensity ratio at 1 times MIC pre-treated for 5 mins and measured 15 mins post dye addition by DiOC2 dye based flow cytometry; type: functional
C2C12 [10] = assay: Induction of membrane disruption in mouse C2C12 cells assessed as change in oxygen consumption rate; type: functional, cell-based
Bacillus subtilis [11] = assay: Protonophore activity in Bacillus subtilis subsp. subtilis str. 168 assessed as induction of rapid equlibration of delta-pH at 30 uM; type: functional, organism-based
C2C12 [12] = assay: Induction of membrane disruption in mouse C2C12 cells assessed as maximum increase in oxygen consumption rate at 30 uM; type: functional, cell-based

NC(=O)c1c(F)ccc(OCc2nc3cc(Cl)cnc3s2)c1F
Activity (Bacillus subtilis [1]): inactive
Activity (Bacillus subtilis [2]): inactive
Activity (Bacillus subtilis [3]): inactive
MIC (Bacillus subtilis [4]): 2.5 µM (≈ 0.889 µg/mL)

CO/N=C(\C(=O)N[C@@H]1C(=O)N2C(C(=O)O)=C(COC(N)=O)CS[C@H]12)c1ccco1 [CEFUROXIME]
Activity (Bacillus subtilis [1]): inactive
Activity (Bacillus subtilis [2]): inactive
Ratio (Bacillus subtilis [5]): 0.306
MIC (Bacillus subtilis [4]): 20 µM (≈ 8.49 µg/mL)

O=C/C=C/c1ccccc1 [CINNAMALDEHYDE]
Activity (Bacillus subtilis [1]): Active
Activity (Bacillus subtilis [6]): inactive
Activity (Bacillus subtilis [2]): Active
Activity (Bacillus subtilis [3]): Active
MIC (Bacillus subtilis [4]): 2500 µM (≈ 330 µg/mL)

N#CC(C#N)=NNc1cccc(Cl)c1 [CARBONYL CYANIDE M-CHLOROPHENYLHYDRAZONE]
Activity (Bacillus subtilis [1]): Active
Activity (Bacillus subtilis [6]): Active
Activity (C2C12 [7]): Active
Activity (C2C12 [8]): Active
Activity (Bacillus subtilis [2]): inactive
Ratio (Bacillus subtilis [9]): 0.045
MIC (Bacillus subtilis [4]): 10 µM (≈ 2.05 µg/mL)

C[n+]1cc2c3c(ccc2c2ccc4cc5c(cc4c21)OCO5)OCO3 [SANGUINARIUM]
Activity (Bacillus subtilis [6]): inactive
Activity (Bacillus subtilis [2]): Active
Activity (Bacillus subtilis [3]): Active
MIC (Bacillus subtilis [4]): 10 µM

CC(C)c1c(O)ccc2c1CC[C@H]1C(C)(C)CCC[C@]21C [TOTAROL]
Activity (Bacillus subtilis [1]): Active
Activity (Bacillus subtilis [6]): inactive
Activity (C2C12 [10]): inactive
Activity (Bacillus subtilis [2]): Active
Activity (Bacillus subtilis [3]): Active
MIC (Bacillus subtilis [4]): 2.5 µM (≈ 0.716 µg/mL)

COC(=O)CC1Cc2cc3cc(OC)c(-c4c(OC)cc5cc6c(c(O)c5c4O)C(=O)OC(CC(=O)OC)C6)c(O)c3c(O)c2C(=O)O1 (stereo unspecified) [VIRIDITOXIN]
Activity (Bacillus subtilis [1]): Active
Activity (Bacillus subtilis [6]): inactive
Activity (Bacillus subtilis [3]): inactive
MIC (Bacillus subtilis [4]): 0.63 µM (≈ 0.417 µg/mL)

Oc1ccc(Cl)cc1Cc1cc(Cl)cc(Cc2cc(Cl)ccc2O)c1O
Activity (Bacillus subtilis [1]): Active
Activity (Bacillus subtilis [11]): Active
Activity (Bacillus subtilis [6]): inactive
Activity (C2C12 [12]): Active
Activity (Bacillus subtilis [2]): inactive
Activity (Bacillus subtilis [3]): Active
MIC (Bacillus subtilis [4]): 0.16 µM (≈ 0.0656 µg/mL)
